Columns and labels:
[1] = target: PIK3CA (human) (UniProt P42336); assay: Inhibition of PIK3CA Kinase Activity
[2] = target: PIK3CG (human) (UniProt P48736); assay: Inhibition of PIK3CG Kinase Activity
Chain of PIK3CG (human) (P48736 whole entry, looked up): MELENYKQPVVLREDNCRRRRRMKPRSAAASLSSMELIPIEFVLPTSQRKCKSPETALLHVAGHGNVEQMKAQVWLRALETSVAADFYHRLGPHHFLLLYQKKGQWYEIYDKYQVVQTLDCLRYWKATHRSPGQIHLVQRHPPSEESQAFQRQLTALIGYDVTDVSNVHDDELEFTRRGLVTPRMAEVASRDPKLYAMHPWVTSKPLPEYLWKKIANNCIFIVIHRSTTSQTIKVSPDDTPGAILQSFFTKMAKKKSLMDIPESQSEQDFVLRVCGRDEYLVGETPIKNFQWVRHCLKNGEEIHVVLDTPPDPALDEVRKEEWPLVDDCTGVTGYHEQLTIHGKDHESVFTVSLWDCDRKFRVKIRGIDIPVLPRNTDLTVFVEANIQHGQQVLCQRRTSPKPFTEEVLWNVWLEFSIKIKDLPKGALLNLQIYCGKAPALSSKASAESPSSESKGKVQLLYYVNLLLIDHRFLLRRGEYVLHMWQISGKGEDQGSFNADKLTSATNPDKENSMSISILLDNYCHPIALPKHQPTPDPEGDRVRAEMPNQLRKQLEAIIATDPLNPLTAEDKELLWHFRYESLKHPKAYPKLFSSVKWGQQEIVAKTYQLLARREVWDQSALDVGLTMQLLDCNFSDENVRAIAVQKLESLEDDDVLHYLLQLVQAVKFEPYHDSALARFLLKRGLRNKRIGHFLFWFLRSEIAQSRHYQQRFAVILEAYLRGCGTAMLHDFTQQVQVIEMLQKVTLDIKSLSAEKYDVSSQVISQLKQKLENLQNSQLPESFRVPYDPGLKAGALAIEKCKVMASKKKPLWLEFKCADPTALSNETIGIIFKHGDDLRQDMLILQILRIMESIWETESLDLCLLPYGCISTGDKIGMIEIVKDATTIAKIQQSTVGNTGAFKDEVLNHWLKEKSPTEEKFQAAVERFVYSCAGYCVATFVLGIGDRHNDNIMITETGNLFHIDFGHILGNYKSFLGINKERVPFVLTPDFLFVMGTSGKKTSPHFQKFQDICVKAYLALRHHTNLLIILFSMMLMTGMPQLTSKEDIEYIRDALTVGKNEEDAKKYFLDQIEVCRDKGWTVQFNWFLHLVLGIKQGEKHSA

Chain of PIK3CA (human) (P42336 whole entry, looked up): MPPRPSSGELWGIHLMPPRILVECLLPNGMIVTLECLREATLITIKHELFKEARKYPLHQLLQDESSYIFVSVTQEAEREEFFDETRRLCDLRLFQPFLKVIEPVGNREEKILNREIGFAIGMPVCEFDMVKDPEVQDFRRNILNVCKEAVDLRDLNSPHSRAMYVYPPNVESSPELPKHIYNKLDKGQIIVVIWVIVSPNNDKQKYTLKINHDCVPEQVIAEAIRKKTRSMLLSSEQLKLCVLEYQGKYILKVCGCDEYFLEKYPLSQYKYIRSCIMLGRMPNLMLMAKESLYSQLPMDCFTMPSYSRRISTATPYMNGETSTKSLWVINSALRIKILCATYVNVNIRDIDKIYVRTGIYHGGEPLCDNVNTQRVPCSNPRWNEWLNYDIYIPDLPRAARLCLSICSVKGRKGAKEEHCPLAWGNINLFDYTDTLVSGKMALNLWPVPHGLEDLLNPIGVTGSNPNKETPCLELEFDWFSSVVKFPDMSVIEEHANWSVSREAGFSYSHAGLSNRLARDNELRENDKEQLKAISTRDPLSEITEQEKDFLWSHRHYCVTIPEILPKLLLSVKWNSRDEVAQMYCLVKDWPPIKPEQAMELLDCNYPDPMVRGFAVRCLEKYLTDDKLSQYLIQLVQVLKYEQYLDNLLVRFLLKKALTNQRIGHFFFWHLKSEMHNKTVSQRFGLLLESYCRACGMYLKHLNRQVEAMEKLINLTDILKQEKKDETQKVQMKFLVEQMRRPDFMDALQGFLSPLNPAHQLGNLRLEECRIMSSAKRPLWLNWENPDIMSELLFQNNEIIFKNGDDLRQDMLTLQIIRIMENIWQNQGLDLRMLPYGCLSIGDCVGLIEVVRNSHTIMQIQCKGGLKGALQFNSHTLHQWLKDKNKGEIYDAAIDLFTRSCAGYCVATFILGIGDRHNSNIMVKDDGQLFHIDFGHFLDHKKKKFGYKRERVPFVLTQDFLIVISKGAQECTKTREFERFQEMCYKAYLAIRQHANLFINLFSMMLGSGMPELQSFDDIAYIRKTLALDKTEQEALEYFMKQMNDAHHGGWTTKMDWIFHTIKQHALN

| IC50 [1] [nM] | IC50 [2] [nM] | Structure (SMILES) |
| --- | --- | --- |
| 560 | 1.85 | CCn1nnc2c(N3CCOCC3)nc(-c3ccc(NC(=O)Nc4ccc(C(=O)N(C)CCN(C)C)nc4)cc3)nc21 |
| 588 | 1.65 | CCn1nnc2c(N3CCOCC3)nc(-c3ccc(NC(=O)Nc4ccc(NC(=O)N(C)CCN(C)C)cc4)cc3)nc21 |
| 585 | 2.15 | CCn1nnc2c(N3CCOC[C@@H]3C)nc(-c3ccc(NC(=O)Nc4ccc(C(=O)N5CCN(C)CC5)cc4)cc3)nc21 |
| 650 | 0.8 | CN(C)CCNC(=O)c1ccc(NC(=O)Nc2ccc(-c3nc(N4CCOCC4)c4nnn(-c5cccc(C(N)=O)c5)c4n3)cc2)cc1 |
| 594 | 3.3 | CCn1nnc2c(N3CCOCC3)nc(-c3ccc(NC(=O)Nc4ccc(NC(=O)NCc5ccccn5)cc4)cc3)nc21 |
| 565 | 1.85 | CCn1nnc2c(N3CCOCC3)nc(-c3ccc(NC(=O)Nc4ccc(NC(=O)c5ccncc5)cc4)cc3)nc21 |
| 573 | 1.7 | CCn1nnc2c(N3CCOCC3)nc(-c3ccc(NC(=O)Nc4ccc(NC(=O)N5CCNCC5)cc4)cc3)nc21 |
| 600 | 0.9 | CCN1CCN(C(=O)Nc2ccc(NC(=O)Nc3ccc(-c4nc(N5CCOCC5)c5nnn(CC)c5n4)cc3)cc2)CC1 |
| 552 |  | CC(C)n1nnc2c(N3CCOCC3)nc(-c3ccc(NC(=O)Nc4ccc(NS(C)(=O)=O)cc4)cc3)nc21 |
| 552 | 3.3 | CCn1nnc2c(N3CCOCC3)nc(-c3ccc(NC(=O)Nc4ccc(NCc5cccnc5)cc4)cc3)nc21 |
| 565 | 1.85 | CCn1nnc2c(N3CCOCC3)nc(-c3ccc(NC(=O)Nc4ccc(C(=O)Nc5cccnc5)cc4)cc3)nc21 |
| 490 |  | CCn1nnc2c(N3CCOCC3)nc(-c3ccc(NC(=O)Nc4ccc([N+](=O)[O-])cc4)cc3)nc21 |
| 585 |  | CC(C)n1nnc2c(N3CCOCC3)nc(-c3ccc(NC(=O)Nc4ccc(C(=O)N5CCN(C)CC5)cc4)cc3)nc21 |
| 629 | 1.8 | CCn1nnc2c(N3CCOCC3)nc(-c3ccc(NC(=O)Nc4ccc(NC(=O)NCCN5CCN(C)CC5)cc4)cc3)nc21 |
| 552 |  | CCn1nnc2c(N3CCOCC3)nc(-c3ccc(NC(=O)Nc4ccc(NCc5ccncc5)cc4)cc3)nc21 |
| 460 | 7.33 | CCn1nnc2c(N3CCOCC3)nc(-c3ccc(NC(=O)Nc4ccc(N)cc4)cc3)nc21 |
| 62 | 426 | Oc1cccc(-c2nc(N3CCOCC3)c3nnn(C4CCN(Cc5ccc[nH]5)CC4)c3n2)c1 |
| 614 | 1.45 | CCn1nnc2c(N3CCOCC3)nc(-c3ccc(NC(=O)Nc4ccc(NC(=O)N5CCC(N(C)C)CC5)cc4)cc3)nc21 |
| 613 |  | CCn1nnc2c(N3CCOC[C@@H]3C)nc(-c3ccc(NC(=O)Nc4ccc(C(=O)NCCN5CCCCC5)cc4)cc3)nc21 |
| 561 |  | CCn1nnc2c(N3CCOCC3)nc(-c3ccc(NC(=O)Nc4ccc(NC(=O)NCCOC)cc4)cc3)nc21 |
| 558 |  | CC(C)n1nnc2c(N3CCOCC3)nc(-c3ccc(NC(=O)Nc4ccc(N5CCN(C)CC5)cc4)cc3)nc21 |
| 473 |  | CC(C)n1nnc2c(N3CCOCC3)nc(-c3ccc(NC(=O)Nc4ccc(N)cc4)cc3)nc21 |
| 490 | 3.3 | CCn1nnc2c(N3CCOCC3)nc(-c3ccc(NC(=O)Nc4ccc(C(=O)O)nc4)cc3)nc21 |
| 574 | 1.33 | CCn1nnc2c(N3CCOCC3)nc(-c3ccc(NC(=O)Nc4ccc(NC(=O)CN(C)C)cc4)cc3)nc21 |
| 599 |  | CCn1nnc2c(N3CCOC[C@@H]3C)nc(-c3ccc(NC(=O)Nc4ccc(C(=O)NCCN5CCCC5)cc4)cc3)nc21 |

| IC50 [1] [nM] | IC50 [2] [nM] | Structure (SMILES) |
| --- | --- | --- |
| 587 | 2.2 | CCn1nnc2c(N3CCOC[C@@H]3C)nc(-c3ccc(NC(=O)Nc4ccc(C(=O)N(C)CCN(C)C)cc4)cc3)nc21 |
| 640 | 0.75 | CCn1nnc2c(N3CCOCC3)nc(-c3ccc(NC(=O)Nc4ccc(NC(=O)N5CCC(N6CCCC6)CC5)cc4)cc3)nc21 |
| 601 | 1.7 | CCn1nnc2c(N3CCOCC3)nc(-c3ccc(NC(=O)Nc4ccc(NC(=O)NC5CCN(C)CC5)cc4)cc3)nc21 |
| 116 | 216 | Oc1cccc(-c2nc(N3CCOCC3)c3nnn(CCCCN4CCN(Cc5ccccc5)CC4)c3n2)c1 |
| 586 | 1.85 | CCn1nnc2c(N3CCOCC3)nc(-c3ccc(NC(=O)Nc4ccc(NC(=O)N5CCN(C)CC5)cc4)cc3)nc21 |
| 651 | 0.95 | CN(C)CCNC(=O)c1ccc(NC(=O)Nc2ccc(-c3nc(N4CCOCC4)c4nnn(-c5cccc(C(=O)O)c5)c4n3)cc2)cc1 |
| 607 | 1.83 | CCn1nnc2c(N3CCOCC3)nc(-c3ccc(NC(=O)Nc4ccc(NC(=O)c5cccc(N(C)C)c5)cc4)cc3)nc21 |
| 557 | 1.35 | CCn1nnc2c(N3CCOCC3)nc(-c3ccc(NC(=O)Nc4ccc(CN5CCN(C)CC5)cc4)cc3)nc21 |
| 574 | 1.65 | CCn1nnc2c(N3CCOCC3)nc(-c3ccc(NC(=O)Nc4ccc(NC(=O)NCCN(C)C)cc4)cc3)nc21 |
| 613 |  | CCn1nnc2c(N3CCOC[C@@H]3C)nc(-c3ccc(NC(=O)Nc4ccc(C(=O)N5CCC(N(C)C)CC5)cc4)cc3)nc21 |
| 569 |  | CCn1nnc2c(N3CCOCC3)nc(-c3ccc(NC(=O)Nc4ccc(NCc5ccc(F)nc5)cc4)cc3)nc21 |
| 5.3 | 20 | O=C(Nc1ccncc1)Nc1ccc(-c2nc(N3CCOCC3)c3nnn(CCO)c3n2)cc1 |
| 531 | 8 | CCn1nnc2c(N3CCOCC3)nc(-c3ccc(NC(=O)Nc4ccc(C(=O)NN(C)C)cc4)cc3)nc21 |
| 581 |  | CCn1nnc2c(N3CCOCC3)nc(-c3ccc(NC(=O)Nc4ccc(NCc5ccc(OC)nc5)cc4)cc3)nc21 |
| 58 | 790 | CC(C)(C)OC(=O)N1CC(n2nnc3c(N4CCOCC4)nc(-c4ccc(NC(=O)Nc5ccccc5)cc4)nc32)C1 |
| 543 |  | CCn1nnc2c(N3CCOCC3)nc(-c3ccc(NC(=O)Nc4ccc(N5CCN(C)CC5)cc4)cc3)nc21 |
| 504 |  | CC(C)n1nnc2c(N3CCOCC3)nc(-c3ccc(NC(=O)Nc4ccc([N+](=O)[O-])cc4)cc3)nc21 |
| 573 | 1.85 | CCn1nnc2c(N3CCOC[C@@H]3C)nc(-c3ccc(NC(=O)Nc4ccc(C(=O)NCCN(C)C)cc4)cc3)nc21 |
| 601 | 1.7 | CCn1nnc2c(N3CCOCC3)nc(-c3ccc(NC(=O)Nc4ccc(NC(=O)NCCN5CCCC5)cc4)cc3)nc21 |
| 572 |  | CCn1nnc2c(N3CCOCC3)nc(-c3ccc(NC(=O)Nc4ccc(C(=O)N5CCN(C)CC5)nc4)cc3)nc21 |
| 600 | 1.65 | CCn1nnc2c(N3CCOCC3)nc(-c3ccc(NC(=O)Nc4ccc(NC(=O)N5CCCN(C)CC5)cc4)cc3)nc21 |
| 572 | 2 | CC(C)n1nnc2c(N3CCOCC3)nc(-c3ccc(NC(=O)Nc4ccc(C(=O)NCCN(C)C)cc4)cc3)nc21 |
| 504 |  | CCn1nnc2c(N3CCOCC3)nc(-c3ccc(NC(=O)Nc4ccc(C(=O)OC)nc4)cc3)nc21 |
| 573 |  | CCn1nnc2c(N3CCOCC3)nc(-c3ccc(NC(=O)Nc4ccc(NC(=O)N5CCOCC5)cc4)cc3)nc21 |

Source: the Kinase Knowledgebase extract (Sharma et al. 2016)
